Results published in US10227357B2, “Compounds and methods for kinase modulation, and indications therefor” (Plexxikon Inc., priority 2012, dated 2019).

Tests used:
c-kit kinase = target: T1, c-kit kinase (Homo sapiens, UniProt P10721); experiment: c-Kit biochemical assay, AlphaScreen, 10 μM ATP; conditions: c-kit biochemical inhibitory activity; read-out: Biochemical activity (IC50 μM) Kit
T1 construct: The c-kit (or kinase domain thereof) is an active kinase in AlphaScreen; poly-Histidine tag (in-house protein only) (cleaved yes); host or cells: E. coli BL21(DE3)RIL, co-expressed with PTP1B
Method in brief: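 His-tagged c-Kit expressed in E. coli with co-expressed PTP1B (dephosphorylated), tag removed; 0.1 ng per reaction with biotinylated-peptide substrate in 50 mM HEPES pH 7.2, 5 mM MgCl2, 5 mM MnCl2, 5% DMSO, 10 μM ATP, 1 h at room temperature. Phosphorylation detected by AlphaScreen (streptavidin donor, PY20 acceptor beads); IC50 from 8-point 1:3 dilution series.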

c-kit mutant D816V = target: T2, c-kit mutant D816V (Homo sapiens, UniProt P10721, D816V/DEL694-753); experiment: c-Kit mutant D816V biochemical assay, AlphaScreen; conditions: c-kit D816V biochemical inhibitory activity; read-out: Biochemical activity (IC50 μM) Kit D816V
T2 construct: residues 551-934, kinase insertion domain residues 694-753 deleted; 6x-histidine (N); made in house; host or cells: E. coli Arctic Express (DE3) RIL (Stratagene)
Method in brief: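 Purified His-tagged c-Kit D816V (E. coli-expressed) assayed in 25 mM HEPES pH 7.2 with Mg/Mn, 5% DMSO and 10 μM ATP, 30 min at room temperature, 8-point 1:3 dilutions. Phosphorylation detected by AlphaScreen with streptavidin donor and PY20 acceptor beads; IC50 from signal versus concentration.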

T1 sequence (P10721 26-976): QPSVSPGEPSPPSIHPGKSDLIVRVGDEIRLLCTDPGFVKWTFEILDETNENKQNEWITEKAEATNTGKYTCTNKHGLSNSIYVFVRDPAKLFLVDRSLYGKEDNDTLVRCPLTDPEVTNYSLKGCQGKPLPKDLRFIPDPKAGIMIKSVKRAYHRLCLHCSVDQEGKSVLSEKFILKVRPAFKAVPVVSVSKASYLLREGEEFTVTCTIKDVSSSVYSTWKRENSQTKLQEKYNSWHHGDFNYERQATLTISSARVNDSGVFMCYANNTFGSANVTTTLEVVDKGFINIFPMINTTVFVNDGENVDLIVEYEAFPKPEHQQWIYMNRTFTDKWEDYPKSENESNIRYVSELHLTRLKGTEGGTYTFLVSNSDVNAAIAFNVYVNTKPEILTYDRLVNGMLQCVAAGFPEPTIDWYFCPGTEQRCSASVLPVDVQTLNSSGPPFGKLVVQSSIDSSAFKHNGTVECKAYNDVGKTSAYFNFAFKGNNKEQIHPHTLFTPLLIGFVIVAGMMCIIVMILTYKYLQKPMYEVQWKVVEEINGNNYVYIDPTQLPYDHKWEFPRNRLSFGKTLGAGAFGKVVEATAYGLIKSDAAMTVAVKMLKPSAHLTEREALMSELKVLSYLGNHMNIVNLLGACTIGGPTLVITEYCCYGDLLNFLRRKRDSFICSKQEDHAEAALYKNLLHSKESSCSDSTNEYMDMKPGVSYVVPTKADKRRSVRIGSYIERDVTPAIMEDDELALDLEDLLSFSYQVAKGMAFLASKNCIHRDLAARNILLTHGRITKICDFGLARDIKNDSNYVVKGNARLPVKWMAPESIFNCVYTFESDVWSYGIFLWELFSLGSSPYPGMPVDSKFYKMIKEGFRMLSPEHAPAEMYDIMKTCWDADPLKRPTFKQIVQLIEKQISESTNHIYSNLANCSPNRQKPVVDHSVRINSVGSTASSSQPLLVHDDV
T2 sequence (P10721 with tags, fused parts or gaps DEL694-753/D816V): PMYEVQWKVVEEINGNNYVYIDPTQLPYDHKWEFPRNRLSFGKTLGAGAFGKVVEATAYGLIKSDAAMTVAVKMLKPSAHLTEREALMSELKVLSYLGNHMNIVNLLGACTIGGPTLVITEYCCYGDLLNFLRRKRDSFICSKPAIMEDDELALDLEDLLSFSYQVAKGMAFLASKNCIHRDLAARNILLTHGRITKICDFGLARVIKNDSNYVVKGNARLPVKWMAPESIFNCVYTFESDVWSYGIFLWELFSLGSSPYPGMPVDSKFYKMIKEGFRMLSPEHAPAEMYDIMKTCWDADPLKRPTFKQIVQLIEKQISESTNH

| Compound | IC50 (c-kit kinase) | IC50 (c-kit mutant D816V) |
| --- | --- | --- |
| N#Cc1cccc(-c2cc3c(N4CCN(C(=O)Nc5ccc(OC(F)(F)F)cc5)CC4)ncnc3[nH]2)c1 [P-0121, 4-[6-(3-cyanophenyl)-7H-pyrrolo[2,3-d]pyrimidin-4-yl]-N-[4-(trifluoromethoxy)phenyl]piperazine-1-carboxamide] | 10 to 200 µM | 10 to 200 µM |
| O=C(NCc1ccc(Cl)cn1)N1CCN(c2ncnc3[nH]c(-c4cccnc4)cc23)CC1 [P-0123, N-[(5-chloro-2-pyridyl)methyl]-4-[6-(3-pyridyl)-7H-pyrrolo[2,3-d]pyrimidin-4-yl]piperazine-1-carboxamide] | 0.0001 to 1 µM | 0.0001 to 1 µM |
| O=C(Nc1ccc(OC(F)F)cc1)N1CCN(c2ncnc3[nH]c(-c4ccc(F)cc4)cc23)CC1 [P-0125, N-[4-(difluoromethoxy)phenyl]-4-[6-(4-fluorophenyl)-7H-pyrrolo[2,3-d]pyrimidin-4-yl]piperazine-1-carboxamide] | 0.0001 to 1 µM | 1 to 10 µM |
| COc1cc(CNC(=O)N2CCN(c3ncnc4[nH]c(-c5cccnc5)cc34)CC2)ccn1 [P-0127, N-[(2-methoxy-4-pyridyl)methyl]-4-[6-(3-pyridyl)-7H-pyrrolo[2,3-d]pyrimidin-4-yl]piperazine-1-carboxamide] | 10 to 200 µM | 1 to 10 µM |
| COc1cccc(CNC(=O)N2CCN(c3ncnc4[nH]c(-c5cccnc5)cc34)CC2)n1 [P-0128, N-[(6-methoxy-2-pyridyl)methyl]-4-[6-(3-pyridyl)-7H-pyrrolo[2,3-d]pyrimidin-4-yl]piperazine-1-carboxamide] | 10 to 200 µM | 1 to 10 µM |
| NC(=O)N1CCN(c2ncnc3[nH]c(-c4cccnc4)cc23)CC1 [P-0130, 4-[6-(3-pyridyl)-7H-pyrrolo[2,3-d]pyrimidin-4-yl]piperazine-1-carboxamide] | 10 to 200 µM | 1 to 10 µM |
| O=C(NCc1cncc(F)c1)N1CCN(c2ncnc3[nH]c(-c4ccc(F)cc4)cc23)CC1 [P-0131, 4-[6-(4-fluorophenyl)-7H-pyrrolo[2,3-d]pyrimidin-4-yl]-N-[(5-fluoro-3-pyridyl)methyl]piperazine-1-carboxamide] | 1 to 10 µM | 1 to 10 µM |
| O=C(Nc1ccc(OC(F)(F)F)cc1)N1CCN(c2ncnc3[nH]c(-c4ccc(F)cc4)cc23)CC1 [P-0133, 4-[6-(4-fluorophenyl)-7H-pyrrolo[2,3-d]pyrimidin-4-yl]-N-[4-(trifluoromethoxy)phenyl]piperazine-1-carboxamide] | 0.0001 to 1 µM | 1 to 10 µM |
| O=C(Nc1ccc(OC(F)(F)F)cc1)N1CCN(c2ncnc3[nH]c(-c4ccc(Cl)cc4)cc23)CC1 [P-0134, 4-[6-(4-chlorophenyl)-7H-pyrrolo[2,3-d]pyrimidin-4-yl]-N-[4-(trifluoromethoxy)phenyl]piperazine-1-carboxamide] | 0.0001 to 1 µM | 1 to 10 µM |
| O=C(NCc1ccc(F)cc1)N1CCN(c2ncnc3[nH]cc(CC4CC4)c23)CC1 [P-0137, 4-[5-(cyclopropylmethyl)-7H-pyrrolo[2,3-d]pyrimidin-4-yl]-N-[(4-fluorophenyl)methyl]piperazine-1-carboxamide] | 10 to 200 µM | 1 to 10 µM |
| COc1cccc([C@H](C)NC(=O)N2CCN(c3ncnc4[nH]c(-c5ccc(F)cc5)cc34)CC2)c1 [P-0144, 4-[6-(4-fluorophenyl)-7H-pyrrolo[2,3-d]pyrimidin-4-yl]-N-[(1S)-1-(3-methoxyphenyl)ethyl]piperazine-1-carboxamide] | 1 to 10 µM | 0.0001 to 1 µM |
| COc1cccc([C@@H](C)NC(=O)N2CCN(c3ncnc4[nH]c(-c5ccc(F)cc5)cc34)CC2)c1 [P-0149, 4-[6-(4-fluorophenyl)-7H-pyrrolo[2,3-d]pyrimidin-4-yl]-N-[(1R)-1-(3-methoxyphenyl)ethyl]piperazine-1-carboxamide] | 10 to 200 µM | 10 to 200 µM |
| N#Cc1cc2c(N3CCN(C(=O)NCc4ccc(F)cc4)CC3)ncnc2[nH]1 [P-0150, 4-(6-cyano-7H-pyrrolo[2,3-d]pyrimidin-4-yl)-N-[(4-fluorophenyl)rnethyl]piperazine-1-carboxamide] | 10 to 200 µM | 10 to 200 µM |
